The target of one assay is T1, IDH1^R132C (Homo sapiens, UniProt O75874, R132C).
T1 construct: purchased not specified
Kind of assay: NADPH depletion assay, IDH1 R132C. Format: biochemical. The method in brief: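 Fluorescence readout (Ex544/Em590) of NADPH left after diaphorase/resazurin addition. Alpha-ketoglutarate 0.14 mM final, enzyme 2 nM final; compound preincubation 15 min, then 60 min reaction, both at room temperature, pH 7.6 Tris buffer.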

For assay [1], the target named is T2, IDH1^R132H homodimer enzyme (Homo sapiens, UniProt O75874, R132H).
T2 construct: purchased not specified
T2 sequence (O75874 whole entry R132H): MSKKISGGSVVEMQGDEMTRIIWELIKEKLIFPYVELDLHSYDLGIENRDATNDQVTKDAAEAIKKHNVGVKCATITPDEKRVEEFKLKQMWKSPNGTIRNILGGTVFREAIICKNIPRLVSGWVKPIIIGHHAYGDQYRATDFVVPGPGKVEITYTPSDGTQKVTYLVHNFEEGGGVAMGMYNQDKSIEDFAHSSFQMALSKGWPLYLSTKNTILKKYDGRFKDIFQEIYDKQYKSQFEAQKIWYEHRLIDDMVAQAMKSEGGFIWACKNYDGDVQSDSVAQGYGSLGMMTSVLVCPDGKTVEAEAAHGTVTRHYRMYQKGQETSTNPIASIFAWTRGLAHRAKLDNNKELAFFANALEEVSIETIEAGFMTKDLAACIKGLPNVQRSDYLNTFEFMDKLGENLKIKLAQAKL
Put plainly: NADPH depletion assay, IDH1 R132H. Type of assay: biochemical. The method in brief: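 IDH1 R132H enzyme (8 nM as diluted) in Tris-HCl pH 7.6 with 10 mM MgCl2, 0.001% Triton X-100 and 4 mM β-mercaptoethanol is preincubated 15 min at RT with compound. Substrate mix (12 uM NADPH, 3.4 mM α-ketoglutarate) is added for 60 min; remaining NAD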

A further assay deals with U87MG_IDH1R132H. Put plainly: Cellular 2-HG production assay, U87-MG-IDH1 R132H. The note with it: inhibition of 2HG production, 72 hr incubation, LC-MS/MS. Type of assay: cell-based. As to the method:
Cell lines HT-1080 (commercially available) and U87-MG-IDH1^R132H (obtained in analoy to the procedure reported in J. Mol. Neurosci 2013, 50, 165-71) are maintained in E-MEM 10% FCS and incubated at 37° C. in a humidified 5% CO2 atmosphere. Stably transfected U87-MG cell lines are also supplemented with 500 μg/mL G418.
Cells are seeded into 96 well black flat bottom plates at a density of 500 cells/well in 100 μL complete medium. After 24 hr the medium is replaced with 200 uL of fresh medium and compounds (dissolved into DMSO) are administrated to the cells using D300E Digital Dispenser (Tecan).
After 72 hr of incubation 100 uL from each well are collected and used for 2HG (R(−)-2-hydroxyglutarate) quantification.
Levels of 2-HG in cell culture media are determined by LC-MS/MS. Cell supernatants (100 μL/well) are treated with 1 M aqueous trichloroacetic acid containing 130 μM of the internal standard 2-HG-d3 (20 μL/well) in a 96-well plate.
The plates are sealed, mildly vortexed for 60 minutes, centrifuged at 4,000 RPM for 15 minutes, placed in a refrigerated autosampler taking care not to shake them, and aliquots of the upper part of the samples are directly injected in the chromatographic system. Calibration standards are obtained by ten fold dilution of aqueous 2-HG stock solutions with blank cell culture medium and denatured exactly in the same way as described above for samples. Samples and standards are assayed for 2-HG by reversed phase chromatography on a C18 column eluted with aqueous 0.15% formic acid and briefly washed with 90% methanol at the end of the run. 2-HG is determined by negative ion electrospray ionization with the internal standard method on a triple quadrupole mass spectrometer monitoring the MRM transitions 147>129 (2-HG) and 150>132 (2-HG-d3). 2-HG inhibition was calculated by comparing treated versus control data using Assay Explore (Symyx) software, with IC50 determined using a sigmoidal fitting algorithm.

The target in a further assay is T3, IDH2^R172K (Homo sapiens, UniProt P48735, R172K).
T3 construct: purchased not specified
T3 sequence (P48735 40-452 R172K): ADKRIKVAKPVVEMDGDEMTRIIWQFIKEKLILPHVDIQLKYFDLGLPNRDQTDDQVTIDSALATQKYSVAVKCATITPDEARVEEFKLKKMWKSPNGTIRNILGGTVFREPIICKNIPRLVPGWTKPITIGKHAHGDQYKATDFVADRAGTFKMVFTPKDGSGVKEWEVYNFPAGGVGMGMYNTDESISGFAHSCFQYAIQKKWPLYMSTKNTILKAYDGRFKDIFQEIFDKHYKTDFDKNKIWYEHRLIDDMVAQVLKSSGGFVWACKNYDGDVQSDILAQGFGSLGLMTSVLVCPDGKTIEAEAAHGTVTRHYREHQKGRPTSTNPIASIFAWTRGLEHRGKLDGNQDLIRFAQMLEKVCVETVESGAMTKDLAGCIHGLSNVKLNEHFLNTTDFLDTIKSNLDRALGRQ
Put plainly: NADPH depletion assay, IDH2 R172K. Format: biochemical. The method in brief:
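This NADPH depletion assay measures NADPH left after conversion of alpha-ketoglutarate (0.55 mM final) by 16 nM IDH2 R172K over 60 min at room temperature, after a 15 min compound preincubation in pH 7.6 Tris buffer. Substrate mix held 12 μM NADPH. Diaphorase/resazurin gave the fluorescence read-out at 544/590 nm.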

This is an account of results in US12018023B2 (NERVIANO MEDICAL SCIENCES S.R.L., priority 2018, dated 2024).

T1 sequence (O75874 whole entry R132C): as the sequence (O75874 whole entry R132H) above, with H132C counted along it

In the case of `CC(C)[C@H](C)n1c(=O)ccc2cnc(N[C@@H](C)c3ccc(CN4C[C@@H](C)O[C@@H](C)C4)c(F)c3)nc21` [cpd 150, 2-{[(1S)-1-(4-{[(2R,6S)-2,6-dimethylmorpholin-4-yl]methyl}-3-fluorophenyl)ethyl]amino}-8-[(2S)-3-methylbutan-2-yl]pyrido[2,3-d]pyrimidin-7(8H)-one], the figures for the IC50 (on IDH1^R132C; in assay [1]; in the assay on U87MG_IDH1R132H) were 0.008 µM, 0.02 µM and 0.127 µM, respectively.
Turning to `C[C@H](Nc1ncc2ccc(=O)n([C@@H](C)C(C)(C)C)c2n1)c1ccc(CN2CCCC(F)(F)C2)cc1` [cpd 69, 2-{[(1S)-1-{4-[(3,3-difluoropiperidin-1-yl)methyl]phenyl}ethyl]amino}-8-[(2S)-3,3-dimethylbutan-2-yl]pyrido [2,3-d]pyrimidin-7(8H)-one], the IC50 (in general, the point on the concentration scale where inhibition reaches its midpoint) was 0.022 µM against IDH1^R132C, 0.036 µM in assay [1] and 0.078 µM in the assay on U87MG_IDH1R132H.
As for `C[C@H](Nc1ncc2ccc(=O)n(CC(C)(C)C)c2n1)c1ccc(-c2ccccc2C#N)cc1` [cpd 134, 4′-[(1S)-1-{[8-(2,2-dimethylpropyl)-7-oxo-7,8-dihydropyrido[2,3-d]pyrimidin-2-yl]amino}ethyl]biphenyl-2-carbonitrile], the IC50 was 0.061 µM on IDH1^R132C, 0.152 µM in assay [1], 6.11 µM on IDH2^R172K and 0.874 µM in the assay on U87MG_IDH1R132H.
Turning to `C[C@H](Nc1ncc2ccc(=O)n(CC(C)(C)C)c2n1)c1ccc(C(=O)N2CCC(F)(F)CC2)cc1` [cpd 83, 2-{[(1S)-1-{4-[(4,4-difluoropiperidin-1-yl)carbonyl]phenyl}ethyl]amino}-8-(2,2-dimethylpropyl) pyrido[2,3-d]pyrimidin-7(8H)-one], the IC50 turned out to be 0.196 µM at IDH1^R132C, 0.347 µM in assay [1], 4.26 µM against IDH2^R172K and 2.06 µM in the assay with U87MG_IDH1R132H.
In the case of `C[C@H](Nc1ncc2ccc(=O)n(Cc3c(F)cccc3F)c2n1)c1ccc(C(=O)NC2CCC(F)(F)CC2)cc1` [cpd 75, 4-[(1S)-1-{[8-(2,6-difluorobenzyl)-7-oxo-pyrido[2,3-d]pyrimidin-2-yl]amino}ethyl]-N-(4,4-difluorocyclohexyl)benzamide], the values for the IC50 (against IDH1^R132C; in assay [1]; with U87MG_IDH1R132H) were 0.431 µM, 0.407 µM and 1.19 µM, respectively.
The corresponding values for `C[C@H](Nc1ncc2ccc(=O)n(Cc3c(F)cccc3F)c2n1)c1ccc(C(=O)N2CCC(F)(F)CC2)cc1` [cpd 77, 8-(2,6-difluorobenzyl)-2-{[(1S)-1-{4-[(4,4-difluoropiperidin-1-yl)carbonyl]phenyl}ethyl]amino} pyrido[2,3-d]pyrimidin-7(8H)-one] are 0.209 µM, 0.207 µM and 3.03 µM.
Consider `C[C@H](Nc1ncc2ccc(=O)n(CC(C)(C)C)c2n1)c1ccc2ccccc2c1` [cpd 36, 8-(2,2-dimethylpropyl)-2-{[(1S)-1-(naphthalen-2-yl)ethyl]amino}pyrido[2,3-d]pyrimidin-7(8H)-one], for which the IC50 in assay [1] amounted to 0.178 µM; against IDH2^R172K, 6.54 µM; in the assay on U87MG_IDH1R132H, 4.04 µM.
As for `C[C@H](Nc1ncc2ccc(=O)n(CC(C)(C)CO)c2n1)c1ccc(-c2ccsc2)cc1` [cpd 136, 8-(3-hydroxy-2,2-dimethylpropyl)-2-({(1S)-1-[4-(thiophen-3-yl)phenyl]ethyl}amino)pyrido[2,3-d]pyrimidin-7 (8H)-one], the IC50 against IDH1^R132C came out at 0.054 µM; in assay [1], 0.122 µM; in the assay on U87MG_IDH1R132H, 2.91 µM.
Take `Cc1ccccc1Cn1c(=O)ccc2cnc(N[C@@H](C)c3ccc(CN4CCC(F)(F)CC4)cc3)nc21` [cpd 112, 2-{[(1S)-1-{4-[(4,4-difluoropiperidin-1-yl)methyl]phenyl}ethyl]amino}-8-(2-methylbenzyl)pyrido[2,3-d]pyrimidin-7(8H)-one]: the IC50 amounted to 0.178 µM against IDH1^R132C, 0.19 µM in assay [1] and 1.61 µM in the assay on U87MG_IDH1R132H.
